In patent US20260007641A1, “PHARMACEUTICAL COMPOSITION FOR TREATING AND RESISTING BLOOD COAGULATION AND USE THEREOF” (CHENGDU SHIBEIKANG BIOMEDICAL TECHNOLOGY CO., LTD., priority 2022, published 2026):

Columns and labels:
[1] = Solubility and BCS classification of compound A; format: physicochemical
[2] = from Literature 1; cited from earlier work

SMILES	BCS (Biopharmaceutics Classification System) class [1]	solubility in acetone ([1]; acetone)	solubility in ethanol ([1]; ethanol)	solubility in methanol ([1]; methanol)	solubility in toluene ([1]; toluene)	solubility in water ([1]; water)	share of clopidogrel metabolized to compound A after oral intake [2] [%]
COC(=O)[C@H](c1ccccc1Cl)N1CC[C@@H]2SC(=O)C=C2C1 [Compound A, methyl(S)-2-(2-chlorophenyl)-2-((S)-2-oxo-2,6,7,7a-tetrahydrothiophene [3,2-c]pyridin-5 (4H)-yl)acetate]	low solubility and high permeability	very slightly soluble	slightly soluble	hardly soluble	almost insoluble	very slightly soluble	–
COC(=O)[C@H](c1ccccc1Cl)N1CCc2sccc2C1 [clopidogrel]	–	–	–	–	–	–	15
